Laboratory results from ChEMBL document CHEMBL1208784, “Refinement of the pharmacophore of 3,4-dihydroquinazoline-2(1H)-thiones for their anti-melanogenesis activity” (Bioorg Med Chem Lett, 2010).

Tests used:
B16 [1] = assay: Antimelanogenic activity in mouse B16 cells assessed as inhibition of alpha-MSH-induced melanogenesis; type: functional, cell-based
B16 [2] = assay: Antimelanogenic activity in mouse B16 cells assessed as inhibition of alpha-MSH-induced melanogenesis at 10 uM; type: functional
B16 [3] = assay: Antimelanogenic activity in mouse B16 cells assessed as inhibition of alpha-MSH-induced melanogenesis at 100 uM; type: functional
Tyrosinase = biological target: T1, Tyrosinase (Mus musculus, UniProt P11344); assay: Inhibition of tyrosinase in alpha-MSH-induced mouse B16 cells; type: cell-based
T1 sequence (P11344 whole entry): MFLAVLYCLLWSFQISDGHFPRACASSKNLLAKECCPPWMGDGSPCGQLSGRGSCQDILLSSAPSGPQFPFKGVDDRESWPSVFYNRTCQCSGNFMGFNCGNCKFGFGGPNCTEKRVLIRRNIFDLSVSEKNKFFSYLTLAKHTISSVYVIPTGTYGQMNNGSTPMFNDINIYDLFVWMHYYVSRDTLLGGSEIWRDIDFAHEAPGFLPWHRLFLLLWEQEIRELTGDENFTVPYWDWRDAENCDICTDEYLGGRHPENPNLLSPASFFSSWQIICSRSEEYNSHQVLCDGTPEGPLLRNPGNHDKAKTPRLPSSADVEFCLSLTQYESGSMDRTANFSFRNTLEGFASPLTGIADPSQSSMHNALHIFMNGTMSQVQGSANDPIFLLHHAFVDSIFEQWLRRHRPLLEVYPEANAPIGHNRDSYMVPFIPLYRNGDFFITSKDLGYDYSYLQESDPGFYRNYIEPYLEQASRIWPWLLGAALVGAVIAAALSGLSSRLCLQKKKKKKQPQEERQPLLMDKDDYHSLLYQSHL

IC50 (B16 [1]) | Structure (SMILES) | inhibition at 10 µM (B16 [2]) | inhibition at 100 µM (B16 [3]) | IC50 (Tyrosinase)
3000 nM | Cc1ccc2c(c1)CN(CCC(C)C)C(=S)N2 | > 100% |  | 
1200 nM | CCCCCCN1Cc2cc(C)ccc2NC1=S | > 100% |  | 
1400 nM | CCCCCCCN1Cc2cc(C)ccc2NC1=S | > 100% |  | 
1600 nM | Cc1ccc2c(c1)CN(CC1CCCCC1)C(=S)N2 | > 100% |  | 
1200 nM | S=C1Nc2ccc(Cl)cc2CN1CC1CCCCC1 | > 100% |  | 
15800 nM | S=C1NCc2ccccc2N1 | 36% |  | 
19000 nM | Cc1ccc2c(c1)CN(C(C)C)C(=S)N2C | 10% |  | 
17800 nM | Cc1ccc2c(c1)CN(CC(C)C)C(=S)N2C | 18% |  | 
> 10000 nM | Cc1ccc2c(c1)CN(C(C)C)C(=O)N2 | 13% |  | 
> 10000 nM | Cc1ccc2c(c1)CN(CC(C)C)C(=O)N2 | 11% |  | 
> 10000 nM | Cc1ccc2c(c1)CN(CCC(C)C)C(=O)N2 | 15% |  | 
> 10000 nM | CCCCCCN1Cc2cc(C)ccc2NC1=O | 12% |  | 
> 10000 nM | CCCCCCCN1Cc2cc(C)ccc2NC1=O | 19% |  | 
> 10000 nM | Cc1ccc2c(c1)CN(CC1CCCCC1)C(=O)N2 | 18% |  | 
> 10000 nM | O=C1Nc2ccc(Cl)cc2CN1CC1CCCCC1 | 10% |  | 
> 10000 nM | O=C1NCc2ccccc2N1 | 11% |  | 
1900 nM | Cc1ccc2c(c1)CN(C(C)C)C(=S)N2 | > 100% |  | 
1900 nM | Cc1ccc2c(c1)CN(CC(C)C)C(=S)N2 | > 100% |  | 
 | NC(=O)Nc1ccccc1 |  | 0% | 
 | NC(=S)Nc1ccccc1 [PHENYLTHIOUREA] |  |  | 1800 nM
